We go through two substances from patent publication US9969737B2, “Fluorescent carbapenems” (Hans Rudolf Pfaendler, priority 2010, dated 2018).

Data set [1] relates to Pseudomonas aeruginosa (IMP, Heidelberg). Kind of data set: Detection of carbapenemases during optimized incubation. The data set is classed as cell-based. The note with it: pre-incubated 6 h at 37° C. (220 rpm), 100 μg, over night at 37° C. The protocol:
(§1) Detection of carbapenemases by fluorogenic potassium-(4S,5R,6S)-3-(4-acetyl-phenyl)-6-((1′R)-hydroxy-ethyl)-4-methyl-7-oxo-1-aza-bicyclo[3.2.0]hept-2-ene-2-carboxylate during optimized incubation
(§2) Bacterial strains Escherichia coli (ESBL-1, Heidelberg), Escherichia coli (ESBL-2, Heidelberg), Escherichia coli (Oxa-48), Klebsiella pneumoniae (KPC-2, Heidelberg) Klebsiella pneumoniae (VIM-1, Heidelberg), Pseudomonas aeruginosa (GES-2, Heidelberg), Pseudomonas aeruginosa (IMP, Heidelberg), Pseudomonas aeruginosa (VIM-2, Heidelberg) were incubated for 6 h at 37° C. (220 rpm) in Mueller-Hinton-Broth (10 ml) using 45-ml-Falcon-tubes. To each sample (1 ml) was added fluorogenic carbapenem (100 μg) using 15-ml-Falcon-tubes.

In data set [2] the test system is Klebsiella pneumoniae (KPC-2, Heidelberg). The data set is described as above. The data set is classed as cell-based. The note with it: pre-incubated 6 h at 37° C. (220 rpm), 100 μg, over night at 37° C. The protocol: as §1, §2
For data set [3], the system named is Escherichia coli (Oxa-48). Described as above. In kind it is cell-based. The following applies: pre-incubated 6 h at 37° C. (220 rpm), 100 μg, over night at 37° C. The protocol: as §1, §2
Data set [4] has as its system Escherichia coli (ESBL-1, Heidelberg). The data set is described as above. In kind it is cell-based. The note with it: ESBL-producer, pre-incubated 6 h at 37° C. (220 rpm), 100 μg, over night at 37° C. The procedure: as §1, §2
Data set [5] relates to Pseudomonas aeruginosa (GES-2, Heidelberg). The description is as above. The data set is classed as cell-based. The following applies: pre-incubated 6 h at 37° C. (220 rpm), 100 μg, over night at 37° C. The protocol: as §1, §2
In data set [6] the test system is Escherichia coli (ESBL-2, Heidelberg). The data set is described as above. In kind it is cell-based. The note with it: ESBL-producer, pre-incubated 6 h at 37° C. (220 rpm), 100 μg, over night at 37° C. The protocol: as §1, §2
Data set [7] has as its system Klebsiella pneumoniae (VIM-1, Heidelberg). The data set is described as above. The data set is classed as cell-based. The note with it: pre-incubated 6 h at 37° C. (220 rpm), 100 μg, over night at 37° C. The protocol:
as §1, §2

Data set [8] concerns Pseudomonas aeruginosa (VIM-2, Heidelberg). Described as above. In kind it is cell-based. The note with it: pre-incubated 6 h at 37° C. (220 rpm), 100 μg, over night at 37° C. The protocol: as §1, §2
Data set [9] has as its target T1, Oxa-48-carbapenemases (Klebsiella pneumoniae, UniProt Q6XEC0).
T1 construct: endogenous in cells; host or cells: Escherichia coli strain (producing Oxa-48, Heidelberg), with or without imipenem induction, lysed by sonication
The data set is described as follows: Detection of inducible (Oxa-type) carbapenemases after sonication. In kind it is biochemical, Escherichia coli. The procedure: Detection of inducible (Oxa-type) carbapenemases of Escherichia coli by fluorogenic potassium-(4S,5R,6S)-3-(4-acetyl-phenyl)-6-((1′R)-hydroxy-ethyl)-4-methyl-7-oxo-1-aza-bicyclo[3.2.0]hept-2-ene-2-carboxylate after physical disruption by sonication
Bacterial strain Escherichia cog (producing Oxa-48, Heidelberg) was grown over night at 37° C. (220 rpm) in Mueller-Hinton-Broth (10 ml) using a 45-ml-Falcon tube. A sample (1 ml, McFarland 10) was diluted in Mueller-Hinton-Broth (10 ml) and incubated with Imipenem (2 μg/ml) for 4 h using a 45-ml-Falcon tube. After centrifugation at 13.000 rpm (2 min, 1 ml for analytical studies), the sample was washed once with PBS (1 ml) and resuspended in PBS (500 μl). Subsequently the cells were lysed by sonication with a Bandelin Sonopuls (5×15 s), pulsed at 80% max. power. Further PBS (500 μl) and fluorogenic carbapenem (100 μg) were added.

In data set [10] the target is T2, Klebsiella pneumoniae carbapenemases (KPC), KPC-2 (Klebsiella pneumoniae, UniProt Q9F663).
T2 construct: endogenous in cells; host or cells: Klebsiella pneumoniae clinical strain (KPC-2, Heidelberg), lysed by sonication
The data set is described as follows: Detection of KPC carbapenemase by fluorogenic carbapenem after physical disruption by sonication. In kind it is biochemical. The note with it: cells lysed by sonication, PBS, 100 μg carbapenem, room temperature for 5 min. The procedure: Detection of Klebsiella pneumoniae carbapenemases (KPC) by fluorogenic potassium-(4S,5R,6S)-3-(4-acetyl-phenyl)-6-((1′R)-hydroxy-ethyl)-4-methyl-7-oxo-1-aza-bicyclo[3.2.0]hept-2-ene-2-carboxylate after physical disruption by sonication
Bacterial strain Klebsiella pneumoniae (producing KPC-2, Heidelberg) was grown over night at 37° C. (220 rpm) in Mueller-Hinton-Broth (10 ml) using a 45-ml-Falcon tube, harvested by centrifugation at 13.000 rpm (2 min, 1 ml for analytical studies, McFarland 10), washed once with PBS (1 ml), and resuspended in PBS (500 μl). Subsequently the cells were lysed by sonication with a Bandelin Sonopuls (5×15 s), pulsed at 80% max. power. Further PBS (500 μl) and fluorogenic carbapenem (100 μg) were added.

The test system of data set [11] is Pseudomonas aeruginosa (IMP, Heidelberg). The data set is described as follows: Detection of carbapenemases during incubation in Mueller-Hinton-Broth. The data set is classed as cell-based. The following applies: McFarland 0.5, 100 μg, over night at 37° C. The protocol: (§3) Detection of carbapenemases by fluorogenic potassium-(4S,5R,6S)-3-(4-acetyl-phenyl)-6-((1′R)-hydroxy-ethyl)-4-methyl-7-oxo-1-aza-bicyclo[3.2.0]hept-2-ene-2-carboxylate during incubation
(§4) Bacterial strains Escherichia coli (ESBL-1, Heidelberg), Escherichia coli (ESBL-2, Heidelberg), Escherichia coli (Oxa-48), Klebsiella pneumoniae (KPC-2, Heidelberg) Klebsiella pneumoniae (VIM-1, Heidelberg), Pseudomonas aeruginosa (GES-2, Heidelberg), Pseudomonas aeruginosa (IMP, Heidelberg) and Pseudomonas aeruginosa (VIM-2, Heidelberg) were grown over night at 37° C. in Mueller-Hinton-Broth (10 ml). To each sample (1 ml, McFarland 0.5) was added fluorogenic carbapenem (100 μg).

In data set [12] the test system is Klebsiella pneumoniae (KPC-2, Heidelberg). The data set is described as above. The data set is classed as cell-based. The note with it: McFarland 0.5, 100 μg, over night at 37° C. The procedure: as §3, §4
In data set [13] the test system is Escherichia coli (Oxa-48). Described as above. In kind it is cell-based. The following applies: McFarland 0.5, 100 μg, over night at 37° C. The procedure:
as §3, §4

Data set [14] concerns Escherichia coli (ESBL-1, Heidelberg). Described as above. In kind it is cell-based. The note with it: ESBL-producer, McFarland 0.5, 100 μg, over night at 37° C. The procedure:
as §3, §4

Data set [15] relates to Pseudomonas aeruginosa (GES-2, Heidelberg). The description is as above. The data set is classed as cell-based. The following applies: McFarland 0.5, 100 μg, over night at 37° C. The procedure:
as §3, §4

The subject of data set [16] is Escherichia coli (ESBL-2, Heidelberg). The data set is described as above. The note with it: ESBL-producer, McFarland 0.5, 100 μg, over night at 37° C. The data set is classed as cell-based. The protocol: as §3, §4
For data set [17], the system named is Klebsiella pneumoniae (VIM-1, Heidelberg). The description is as above. In kind it is cell-based. The following applies: McFarland 0.5, 100 μg, over night at 37° C. The protocol:
as §3, §4

In data set [18] the test system is Pseudomonas aeruginosa (VIM-2, Heidelberg). Described as above. The data set is classed as cell-based. The following applies: McFarland 0.5, 100 μg, over night at 37° C. The procedure: as §3, §4
Data set [19] has as its target T2, Klebsiella pneumoniae carbapenemases (KPC), KPC-2. The data set is described as follows: Detection of KPC carbapenemase during sonication with glass beads. In kind it is biochemical. The following applies: sonication with glass beads in ultrasound bath, 100 μg, treatment for 45 min. The protocol: Detection of Klebsiella pneumoniae carbapenemases (KPC) by fluorogenic potassium-(4S,5R,6S)-3-(4-acetyl-phenyl)-6-((1′R)-hydroxy-ethyl)-4-methyl-7-oxo-1-aza-bicyclo[3.2.0]hept-2-ene-2-carboxylate during physical disruption by sonication with glass beads
Bacterial strain Klebsiella pneumoniae (producing KPC-2, Heidelberg) was grown over night at 37° C. in Mueller-Hinton-Broth (10 ml). To a sample (1 ml, McFarland 0.5) were added fluorogenic carbapenem (100 μg) and glass beads (100 mg, Sigma-Aldrich, G9018, 150-212 μm, unwashed) using a 5-ml-glass-tube with a plane bottom. The cells were lysed by sonication with a commercial available ultrasound bath.

The test system of data set [20] is Klebsiella pneumoniae (KPC-2, Heidelberg). The data set is described as follows: Detection of carbapenemases during chemical lysis. The data set is classed as biochemical. The following applies: McFarland 10 in detergent buffer solution, 100 μg, 6 h at 37° C. The protocol:
(§5) Detection of carbapenemases by fluorogenic potassium-(4S,5R,6S)-3-(4-acetyl-phenyl)-6-((1′R)-hydroxy-ethyl)-4-methyl-7-oxo-1-aza-bicyclo[3.2.0]hept-2-ene-2-carboxylate during chemical lysis
(§6) Bacterial strains Pseudomonas aeruginosa DSM 1117 (no resistance), Pseudomonas aeruginosa (VIM-2, Heidelberg) and Klebsiella pneumoniae (KPC-2, Heidelberg) were incubated over night at 37° C. on Mueller-Hinton-Agar plates. A sample of each strain was suspended (McFarland 10) in primary-amine-free buffer solution (1 ml) of a detergent from Merck (Germany). Fluorogenic carbapenem (100 μg) was added.

Data set [21] has as its system Pseudomonas aeruginosa DSM 1117 (no resistance). The data set is described as follows: Detection of carbapenemases during chemical lysis. The data set is classed as biochemical. The note with it: McFarland 10 in detergent buffer solution, 100 μg, 6 h at 37° C. The protocol:
as §5, §6

The test system of data set [22] is Pseudomonas aeruginosa (VIM-2, Heidelberg). Kind of data set: Detection of carbapenemases during chemical lysis. The data set is classed as biochemical. The note with it: McFarland 10 in detergent buffer solution, 100 μg, 6 h at 37° C. The protocol:
as §5, §6

The subject of data set [23] is Pseudomonas aeruginosa (IMP, Heidelberg). The data set is described as follows: Detection of metallo-carbapenemases in PBS during incubation. The data set is classed as cell-based. The following applies: 100 μg, five drops inoculum McFarland 0.5, over night at 37° C. The procedure:
(§7) Detection of metallo-carbapenemases by fluorogenic potassium-(4S,5R,6S)-3-(4-acetyl-phenyl)-6-((1′R)-hydroxy-ethyl)-4-methyl-7-oxo-1-aza-bicyclo[3.2.0]hept-2-ene-2-carboxylate in PBS during incubation
(§8) Bacterial strains Klebsiella pneumoniae (VIM-1, Heidelberg) and Pseudomonas aeruginosa (IMP, Heidelberg) were grown over night at 37° C. in Mueller-Hinton-Broth (10 ml). To each PBS (1 ml) of fluorogenic carbapenem (100 μg) were added five drops of corresponding inoculum (McFarland 0.5).

Data set [24] concerns Klebsiella pneumoniae (VIM-1, Heidelberg). The description is as above. In kind it is cell-based. The following applies: 100 μg, five drops inoculum McFarland 0.5, over night at 37° C. The protocol: as §7, §8
For data set [25] the following is noted: comparison; cited from earlier work.

T2 sequence (Q9F663 25-293 limits assumed): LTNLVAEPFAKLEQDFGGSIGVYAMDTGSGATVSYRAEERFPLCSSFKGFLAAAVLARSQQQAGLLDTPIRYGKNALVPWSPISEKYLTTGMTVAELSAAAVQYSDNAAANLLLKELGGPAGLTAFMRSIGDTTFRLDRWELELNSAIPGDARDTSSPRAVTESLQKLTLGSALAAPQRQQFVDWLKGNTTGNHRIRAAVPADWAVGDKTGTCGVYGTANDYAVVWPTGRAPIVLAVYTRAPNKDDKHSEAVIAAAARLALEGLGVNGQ
T1 sequence (Q6XEC0 23-265 limits assumed): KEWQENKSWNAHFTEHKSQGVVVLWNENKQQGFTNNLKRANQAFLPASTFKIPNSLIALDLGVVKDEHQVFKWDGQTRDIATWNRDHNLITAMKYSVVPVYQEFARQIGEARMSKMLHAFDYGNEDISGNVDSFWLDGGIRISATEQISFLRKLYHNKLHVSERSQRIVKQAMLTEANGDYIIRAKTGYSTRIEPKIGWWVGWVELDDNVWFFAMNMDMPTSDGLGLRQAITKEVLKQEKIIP

On to “potassium-(4S,5R,6S)-3-(4-acetyl-phenyl)-6-((1′R)-hydroxy-ethyl)-4-methyl-7-oxo-1-aza-bicyclo[3.2.0]hept-2-ene-2-carboxylate [Example 1]”, for which the “disappearance of the green-yellow fluorescence colour (λ=366 nm)” value in data set [1], in data set [2], in data set [3], in data set [5], in [7] and in data set [8] was “disappearance of the green-yellow fluorescence colour” each time. Further, the “disappearance of the green-yellow fluorescence colour (λ=366 nm)” value in [19], in data set [20] and in [22] was “disappearance of the green-yellow fluorescence colour” in each case. For the same substance, the “change in fluorescence colour (λ=366 nm)” value in [4], in [6] and in data set [21] was “did not show any change in fluorescence colour” in each case. For the same substance, the “disappearance of the green-yellow fluorescence colour (UV light λ=366 nm)” value was “disappearance of the green-yellow fluorescence colour” in data set [9] (induced with Imipenem (2 μg/ml) for 4 h, lysed by sonication, PBS, room temperature for 5 min); “disappearance of the green-yellow fluorescence colour” in data set [10]; “disappearance of the green-yellow fluorescence colour” in data set [11]; “disappearance of the green-yellow fluorescence colour” in data set [12]; “disappearance of the green-yellow fluorescence colour” in data set [13]; “disappearance of the green-yellow fluorescence colour” in data set [15]. The “disappearance of the green-yellow fluorescence colour (UV light λ=366 nm)” value in [17], in [18], in data set [23] and in [24] was “disappearance of the green-yellow fluorescence colour” throughout. Further, in data set [9] (non-induced sample, within 30 minutes), the “change in fluorescence colour” value is listed as “did not show any change in fluorescence colour”. The “change in colour (fluorescence, UV light λ=366 nm)” value in [14] and in data set [16] was “did not show any change in colour” throughout.
Consider Green Fluorescent Protein, for which the Stokes shift in [25] is 114 nm.
